Consider 61 compounds from a melting point compilation (Tetko et al.; mined from patent text by program, amines drawn as free bases though some values may be those of a salt).

Broadly, the melting point is the temperature of the solid-liquid transition. For the compound `Nc1ccc(Cc2ccc(C3(c4ccc(Cc5ccc(N)cc5)cc4)CCCCC3)cc2)cc1`, the melting point was in the range of 154 to 156 °C.
As for `CC(=O)c1ccc(-c2nc(O)c(C)s2)cc1`, the melting point fell in the range of 219 to 220 °C.
In the case of `CCOC(=O)c1c(S(=O)(=O)c2ccc(C)cc2)nc(-c2ccccc2)c([N+](=O)[O-])c1C(=O)OCC` it was 115 to 117 °C; in that of `N#CCC(=O)NCc1ccc(Cl)c(Cl)c1`, 144 to 145 °C; in that of `Cc1cc2c(-c3ccccc3)c(CCO)n(C)c(=O)c2cc1C`, 204 to 207 °C.
In the case of `CNC(=O)N(O)C(C)C#Cc1ccccc1` (stereo unspecified) it was 136 to 137 °C.
As to `COc1cccc([C@@]23CCC[C@@H]2C(=O)N(C)CCC3)c1` (relative stereo), the melting point fell in the range of 96 to 99 °C.
In the case of `CCOc1ccc(S(=O)c2ccccc2)cc1[N+](=O)[O-]` (stereo unspecified) it was 119 to 121 °C; in that of `CCOC(CNC1=Nc2sc(CC)cc2C(c2ccccc2Cl)=NC1)OCC`, 124 to 127 °C.
In the case of `CNC(=O)CCC12CC(c3ccccc31)c1ccccc12` it was 200 to 201 °C; in that of `CNC(=O)[C@@H](C[C@H](O)[C@H](CC1CCCCC1)NC(=O)OC(C)(C)C)C(C)C`, 154 to 157 °C.
Turning to `CCN(CC)CCc1cccc(Nc2ncc3c(n2)N(c2cccc(C(N)=O)c2)C(=O)N(c2ccc(OC)cc2)C3C)c1` (stereo unspecified), the melting point is 170 to 175 °C.
`CCOCc1nc2c(N)nc3ccccc3c2n1CC(C)(C)CS(=O)(=O)NC`: the melting point was 161 to 163 °C.
To `O=C(O)c1cc(Cl)ccc1OC1CCOC1=O` (stereo unspecified) belongs 159 to 160 °C.
For `CS(=O)(=O)c1ccc([C@@H](CC2CCC(=O)CC2)C(=O)O)cc1Cl`, the melting point fell in the range of 129 to 131 °C.
To `CS(=O)(=O)c1ccc(C2=C(c3ccccc3)C(=NOCc3ccccc3)C2)cc1` belongs 148 to 150 °C; to `O=C(c1ccc(F)cc1)C1(n2cncn2)CC1`, 73 to 75 °C.
To `CC(C)(C)OC(=O)Nc1cc(CC#N)c(C#Cc2ccccc2)cc1NC(=O)CC(=O)c1cccc(C#N)c1` belongs 98 °C; to `Cn1cc(C(=O)Nc2nc(-c3ccco3)c(C(=O)c3ccccc3)s2)ccc1=O`, 220 to 225 °C.
As for `CNC(=O)N1CC(Oc2ccc(F)cc2Cl)C1`, the melting point is 139 to 141 °C.
As to `CCC(CC)c1ccc(CO)c2nc(Oc3c(C)cc(Cl)cc3Cl)n(C)c12`, the melting point is 141 to 143 °C.
To `COc1ccc(NS(=O)(=O)c2cccc3c(N(C)C)cccc23)nn1` belongs 125 to 127 °C; to `CCCCC(=O)N(CCCCn1ccnc1)C1=Nc2cccc3cccc1c23`, 110 to 112 °C.
Turning to `C#CCNc1nc2cc3ccccc3cc2nc1Cl`, the melting point lay within 169 to 172 °C.
In the case of `CC(C)[C@H](NC(=O)OCc1ccc2ccccc2n1)C(=O)N[C@@H](Cc1ccccc1)C[C@H](O)[C@H](Cc1ccccc1)NC(=O)OCc1cccnc1` it was 141 to 143 °C; in that of `CCN(CC)C(=O)c1c(C=O)cccc1[Si](C)(C)C`, 63.5 to 65.5 °C.
To `O=C(OCc1ccccc1)c1cc2cc(Br)ccc2nn1` belongs 171 °C.
In the case of `CCCC(=O)c1cc2c(=O)c(C(=O)O)cn(CC)c2cc1C` it was 208 to 209 °C; in that of `CCCOc1ccccc1-c1nc2nc(OCC)ncc2c(=O)[nH]1`, 196 to 198 °C.
`Cc1nc2ccccc2c(=O)n1-c1nnn[nH]1` displayed a melting point of 225 to 226 °C.
`Cc1nc(Nc2nc(N)nc(-c3ccccc3)c2-c2ccc(=O)n(C(C)C)n2)sc1C` showed a melting point of 256 to 258 °C.
To `Cc1nnc(-c2ccc3occ(-c4ccc(OC(F)(F)F)cc4)c3c2)o1` belongs 129 to 130 °C; to `CC(N)=CC(=O)OCC(C)(C)CN(C)Cc1ccccc1`, 68 to 70 °C.
To `CCCCn1c(=O)c2[nH]c(Cl)nc2n(CCCC)c1=O` belongs 152 °C.
In the case of `CN1C2CCC1CN(C(=O)c1ccc(-c3ccc(N)cc3)o1)C2` it was 190 to 191 °C.
`N#CCN1CCCC(OC(c2ccccc2)c2ccccc2)C1` (stereo unspecified): the melting point was 97 to 99 °C.
`O=C(C=Cc1ccc2ccccc2c1)NCCCCCC(=O)NO` yielded a melting point of 161 to 163 °C.
Take `CCOCCn1c(C(=O)C2CCN(CCC3(c4ccccn4)CCN(C(=O)c4cc(OC)c(OC)c(OC)c4)C3)CC2)nc2ccccc21` (stereo unspecified): the melting point lay within 50 to 55 °C.
In turn, `NCC(c1ccc(OCc2ccccc2)cc1)C1CCCCC1O` (mixture of isomers) displayed a melting point of 160 to 161 °C.
To `O=C(c1ccccc1)N1CCN(CC(O)Cn2c3ccccc3c3ccccc32)CC1` (stereo unspecified) belongs 153 °C; to `Cc1cc(Oc2c(Cl)cc(C(F)(F)F)cc2Cl)nn1C(=O)NOCc1ccccc1`, 98 to 100 °C.
`O=C1C(=O)c2ccc(Br)cc2C2=C1SCC1(CCN(C(=O)c3cccc(Cl)c3)CC1)O2` returned a melting point of 135 to 140 °C.
With `C/C(=C(\C#N)C(=S)/N=C/N(C)C)N1CCCN(c2ccc(C#N)cc2)CC1`, the melting point was in the range of 120 to 126 °C.
For the compound `CC(=O)Cc1ccc(OCC(O)CN2CCN(c3ccccc3)CC2)cc1` (stereo unspecified), the melting point lay in the range of 121 to 122 °C.
In the case of `O=C1c2c(c(=O)n3nc(-c4ccccc4)cc3n2CC(=NO)c2ccccc2)CN1C1CCCCC1` it was greater than 280 °C; in that of `CCOC(=O)/C=C(C)/C=C/C=C(\C)C1=Cc2cc(C(C)(C)C)cc(C(C)(C)C)c2OC1`, 130 to 131 °C.
In the case of `COc1ccc(-c2nnc3c4ccccc4c(CC#N)nn23)cc1`, the melting point fell in the range of 252 to 254 °C.
To `O=C1Cc2c(Oc3ccccc3)ccc(Cl)c2N1` belongs 200 to 202 °C; to `O=C(NNS(=O)(=O)c1ccccc1)c1cccc2cccnc12`, 173 to 175 °C.
To `Brc1ccc(N2CCN(c3ccncc3)CC2)nc1` belongs 176 to 180 °C.
To `CC1(C)Cc2cccc(Oc3c(Cl)cc([N+](=O)[O-])cc3Cl)c2O1` belongs 105 to 110 °C.
`CCC(CC)c1ccc(Cl)c2[nH]c(=O)n(C)c12` yielded a melting point of 165 to 166 °C.
In the case of `CC(=O)Nc1ccc2oc(=O)[nH]c2c1` it was 295 to 300 °C.
The compound `Cc1ccc(S(=O)(=O)NCCCCCCCCCCCn2c3c(c4ccccc4c2=O)C(=O)c2ccccc2-3)cc1` registered a melting point of 170 to 172 °C.
With `CCC1c2cccn2-c2cc(F)c(F)cc2N1S(=O)(=O)c1ccc(O)cc1` (stereo unspecified), the melting point was in the range of 177 to 179 °C.
As for `S=C=Nc1ccc(-c2nc(-c3cccs3)no2)cc1`, the melting point lay in the range of 161 to 162 °C.
In the case of `CCn1cc(C(=O)NCCc2ccncc2)c(=O)c2cnc(N3CCCC3)nc21`, the melting point fell in the range of 175 to 177 °C.
As for `COc1cc(C(=O)CCCC2CCCCC2)c(OC)cc1C`, the melting point is 53.5 to 54.5 °C.
To `Nc1nc(OCCC2CCCCC2)nc2c1ncn2C1OC(CO)C(O)C1O` (stereo unspecified) belongs 105 to 112 °C; to `CCOC1=NS(=O)(=O)C(S(C)(=O)=O)=C1N`, 214 to 217 °C; to `CC=CCNc1cc(C(=O)O)cc(S(=O)(=O)Nc2ccc(NC(C)=O)cc2)c1Nc1ccc(NC(C)=O)cc1`, 265 °C.
